Reference: paper PMC10924921, “Mi-2β promotes immune evasion in melanoma by activating EZH2 methylation” (Nature Communications, 2024)

Experiments:
Experiment in all cases: biochemical
Set-up in all cases: KINOMEscan active-site competition binding panel (468 kinase assays), per cent of control at 1000 nM
Settings in all cases: KINOMEscan per cent of control (binding competition); read-out: Percent Control
[1] = target: T1, ADCK4 (Homo sapiens, UniProt Q96D53)
T1 construct: gene COQ8B
Excerpt: (§1) Figure S7 / Percent Control

[2] = target: T2, LZK (Homo sapiens, UniProt O43283)
T2 construct: gene MAP3K13
Excerpt: as §1

[3] = target: PRKCQ (Homo sapiens, UniProt Q04759)
PRKCQ, sequence (Q04759 whole entry): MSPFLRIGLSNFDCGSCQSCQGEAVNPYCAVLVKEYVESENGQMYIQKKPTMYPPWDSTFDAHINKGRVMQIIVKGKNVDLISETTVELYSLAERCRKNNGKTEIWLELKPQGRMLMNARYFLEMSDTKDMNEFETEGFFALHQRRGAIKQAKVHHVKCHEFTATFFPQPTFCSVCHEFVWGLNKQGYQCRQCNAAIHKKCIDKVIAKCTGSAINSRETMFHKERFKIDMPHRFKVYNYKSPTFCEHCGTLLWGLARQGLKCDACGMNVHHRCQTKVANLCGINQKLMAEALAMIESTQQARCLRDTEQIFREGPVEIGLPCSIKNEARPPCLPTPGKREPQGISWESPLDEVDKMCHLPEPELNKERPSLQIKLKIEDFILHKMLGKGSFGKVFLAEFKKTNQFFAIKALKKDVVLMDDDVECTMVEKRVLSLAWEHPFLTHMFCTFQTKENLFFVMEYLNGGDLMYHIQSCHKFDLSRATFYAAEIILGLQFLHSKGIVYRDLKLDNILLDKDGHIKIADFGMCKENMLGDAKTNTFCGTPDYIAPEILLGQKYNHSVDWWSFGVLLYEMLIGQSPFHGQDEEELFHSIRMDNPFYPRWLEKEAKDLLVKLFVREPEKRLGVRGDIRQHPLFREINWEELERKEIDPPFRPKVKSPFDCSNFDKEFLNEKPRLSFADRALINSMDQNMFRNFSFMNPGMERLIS
Excerpt: as §1

[4] = target: CAMK2G (Homo sapiens, UniProt Q13555)
Excerpt: as §1

[5] = target: T3, MEK5 (Homo sapiens, UniProt Q13163)
T3 construct: gene MAP2K5
T3 sequence (Q13163 whole entry): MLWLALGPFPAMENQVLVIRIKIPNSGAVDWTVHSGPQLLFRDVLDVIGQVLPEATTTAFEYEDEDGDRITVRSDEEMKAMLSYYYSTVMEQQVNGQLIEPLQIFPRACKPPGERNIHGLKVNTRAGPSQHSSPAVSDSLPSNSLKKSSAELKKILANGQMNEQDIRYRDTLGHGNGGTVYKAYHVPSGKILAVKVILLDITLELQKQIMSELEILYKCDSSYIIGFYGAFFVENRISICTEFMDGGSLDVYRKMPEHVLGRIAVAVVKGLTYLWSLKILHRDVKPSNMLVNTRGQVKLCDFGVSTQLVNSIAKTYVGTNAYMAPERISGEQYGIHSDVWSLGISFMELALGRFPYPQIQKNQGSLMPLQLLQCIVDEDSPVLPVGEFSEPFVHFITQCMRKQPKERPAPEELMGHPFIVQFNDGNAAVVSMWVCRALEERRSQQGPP
Excerpt: as §1

[6] = target: T4, TRKB (Homo sapiens, UniProt Q16620)
T4 construct: gene NTRK2
T4 sequence (Q16620 whole entry): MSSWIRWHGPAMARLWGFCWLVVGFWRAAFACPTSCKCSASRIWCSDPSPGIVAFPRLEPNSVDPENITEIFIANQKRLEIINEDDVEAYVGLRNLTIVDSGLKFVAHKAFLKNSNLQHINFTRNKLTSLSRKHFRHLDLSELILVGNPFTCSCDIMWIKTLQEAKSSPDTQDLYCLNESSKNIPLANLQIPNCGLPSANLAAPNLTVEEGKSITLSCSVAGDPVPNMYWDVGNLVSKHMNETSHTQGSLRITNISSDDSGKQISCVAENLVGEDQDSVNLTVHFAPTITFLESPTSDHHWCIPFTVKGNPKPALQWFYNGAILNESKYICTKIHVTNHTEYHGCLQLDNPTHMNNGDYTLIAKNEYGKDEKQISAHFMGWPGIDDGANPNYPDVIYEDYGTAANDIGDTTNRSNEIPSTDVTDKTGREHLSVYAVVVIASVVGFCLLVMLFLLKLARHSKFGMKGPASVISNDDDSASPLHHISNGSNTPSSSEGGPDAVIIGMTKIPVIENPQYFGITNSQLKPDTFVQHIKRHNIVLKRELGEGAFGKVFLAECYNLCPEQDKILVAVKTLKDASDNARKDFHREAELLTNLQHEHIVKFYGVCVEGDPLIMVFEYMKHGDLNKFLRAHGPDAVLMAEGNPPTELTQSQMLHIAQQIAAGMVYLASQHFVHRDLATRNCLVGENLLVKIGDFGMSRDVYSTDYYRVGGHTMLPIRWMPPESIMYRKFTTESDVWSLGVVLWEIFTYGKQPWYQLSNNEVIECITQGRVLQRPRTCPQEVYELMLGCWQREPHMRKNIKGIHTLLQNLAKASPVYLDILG
Excerpt: as §1

[7] = target: T5, RPS6KA5(Kin.Dom.2-C-terminal) (Homo sapiens, UniProt O75582)
T5 construct: Kin.Dom.2-C-terminal
Excerpt: as §1

[8] = target: KIT(V559D) (Homo sapiens, UniProt P10721, V559D)
KIT(V559D), sequence (P10721 whole entry V559D): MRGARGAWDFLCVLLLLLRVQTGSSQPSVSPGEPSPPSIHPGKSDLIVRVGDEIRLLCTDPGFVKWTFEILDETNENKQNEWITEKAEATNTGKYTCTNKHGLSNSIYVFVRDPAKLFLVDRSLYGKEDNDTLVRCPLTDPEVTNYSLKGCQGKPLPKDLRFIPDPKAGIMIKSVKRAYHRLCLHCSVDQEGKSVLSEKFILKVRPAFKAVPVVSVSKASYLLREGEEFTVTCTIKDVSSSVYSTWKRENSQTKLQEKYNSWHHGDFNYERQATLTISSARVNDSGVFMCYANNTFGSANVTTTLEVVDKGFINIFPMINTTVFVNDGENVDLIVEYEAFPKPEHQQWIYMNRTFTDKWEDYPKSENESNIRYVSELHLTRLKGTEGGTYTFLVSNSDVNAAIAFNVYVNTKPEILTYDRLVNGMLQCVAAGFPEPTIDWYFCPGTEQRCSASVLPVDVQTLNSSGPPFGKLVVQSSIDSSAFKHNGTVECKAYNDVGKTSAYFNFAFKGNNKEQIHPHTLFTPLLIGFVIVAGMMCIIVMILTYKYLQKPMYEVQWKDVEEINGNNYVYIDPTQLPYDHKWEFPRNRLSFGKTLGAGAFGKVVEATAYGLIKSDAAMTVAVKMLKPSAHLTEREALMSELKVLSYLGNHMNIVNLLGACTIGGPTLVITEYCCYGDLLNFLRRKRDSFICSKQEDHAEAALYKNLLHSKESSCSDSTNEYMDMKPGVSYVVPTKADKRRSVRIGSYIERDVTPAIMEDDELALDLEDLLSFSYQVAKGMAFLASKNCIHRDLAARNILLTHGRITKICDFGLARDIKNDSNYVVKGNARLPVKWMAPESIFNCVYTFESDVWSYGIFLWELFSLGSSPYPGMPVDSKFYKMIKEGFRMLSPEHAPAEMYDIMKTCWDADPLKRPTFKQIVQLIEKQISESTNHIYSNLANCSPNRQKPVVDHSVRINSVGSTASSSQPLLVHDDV
Excerpt: as §1

[9] = target: T6, ABL1(E255K)-phosphorylated (Homo sapiens, UniProt P00519, E255K)
T6 construct: phosphorylated
Excerpt: as §1

[10] = target: NEK7 (Homo sapiens, UniProt Q8TDX7)
Excerpt: as §1

[11] = target: MAP3K15 (Homo sapiens, UniProt Q6ZN16)
Excerpt: as §1

[12] = target: FLT3(D835Y) (Homo sapiens, UniProt P36888, D835Y)
Excerpt: as §1

[13] = target: T7, IKK-epsilon (Homo sapiens, UniProt Q14164)
T7 construct: gene IKBKE
Excerpt: as §1

[14] = target: MAST1 (Homo sapiens, UniProt Q9Y2H9)
Excerpt: as §1

[15] = target: T8, ABL1(Q252H)-phosphorylated (Homo sapiens, UniProt P00519, Q252H)
T8 construct: phosphorylated
Excerpt: as §1

[16] = target: WEE1 (Homo sapiens, UniProt P30291)
Excerpt: as §1

[17] = target: MAP4K2 (Homo sapiens, UniProt Q12851)
Excerpt: as §1

[18] = target: PRKX (Homo sapiens, UniProt P51817)
PRKX, sequence (P51817 whole entry): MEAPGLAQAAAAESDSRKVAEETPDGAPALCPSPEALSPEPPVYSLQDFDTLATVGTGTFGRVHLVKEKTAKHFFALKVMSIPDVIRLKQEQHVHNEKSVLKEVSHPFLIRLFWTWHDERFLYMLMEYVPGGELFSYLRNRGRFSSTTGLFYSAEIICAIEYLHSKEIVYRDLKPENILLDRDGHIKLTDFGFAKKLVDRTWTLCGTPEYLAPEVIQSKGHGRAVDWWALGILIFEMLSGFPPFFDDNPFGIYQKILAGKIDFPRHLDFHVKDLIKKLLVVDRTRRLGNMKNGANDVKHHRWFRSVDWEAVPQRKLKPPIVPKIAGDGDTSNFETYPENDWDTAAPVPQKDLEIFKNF
Excerpt: as §1

[19] = target: WNK3 (Homo sapiens, UniProt Q9BYP7)
Excerpt: as §1

[20] = target: EPHA5 (Homo sapiens, UniProt P54756)
EPHA5, sequence (P54756 whole entry): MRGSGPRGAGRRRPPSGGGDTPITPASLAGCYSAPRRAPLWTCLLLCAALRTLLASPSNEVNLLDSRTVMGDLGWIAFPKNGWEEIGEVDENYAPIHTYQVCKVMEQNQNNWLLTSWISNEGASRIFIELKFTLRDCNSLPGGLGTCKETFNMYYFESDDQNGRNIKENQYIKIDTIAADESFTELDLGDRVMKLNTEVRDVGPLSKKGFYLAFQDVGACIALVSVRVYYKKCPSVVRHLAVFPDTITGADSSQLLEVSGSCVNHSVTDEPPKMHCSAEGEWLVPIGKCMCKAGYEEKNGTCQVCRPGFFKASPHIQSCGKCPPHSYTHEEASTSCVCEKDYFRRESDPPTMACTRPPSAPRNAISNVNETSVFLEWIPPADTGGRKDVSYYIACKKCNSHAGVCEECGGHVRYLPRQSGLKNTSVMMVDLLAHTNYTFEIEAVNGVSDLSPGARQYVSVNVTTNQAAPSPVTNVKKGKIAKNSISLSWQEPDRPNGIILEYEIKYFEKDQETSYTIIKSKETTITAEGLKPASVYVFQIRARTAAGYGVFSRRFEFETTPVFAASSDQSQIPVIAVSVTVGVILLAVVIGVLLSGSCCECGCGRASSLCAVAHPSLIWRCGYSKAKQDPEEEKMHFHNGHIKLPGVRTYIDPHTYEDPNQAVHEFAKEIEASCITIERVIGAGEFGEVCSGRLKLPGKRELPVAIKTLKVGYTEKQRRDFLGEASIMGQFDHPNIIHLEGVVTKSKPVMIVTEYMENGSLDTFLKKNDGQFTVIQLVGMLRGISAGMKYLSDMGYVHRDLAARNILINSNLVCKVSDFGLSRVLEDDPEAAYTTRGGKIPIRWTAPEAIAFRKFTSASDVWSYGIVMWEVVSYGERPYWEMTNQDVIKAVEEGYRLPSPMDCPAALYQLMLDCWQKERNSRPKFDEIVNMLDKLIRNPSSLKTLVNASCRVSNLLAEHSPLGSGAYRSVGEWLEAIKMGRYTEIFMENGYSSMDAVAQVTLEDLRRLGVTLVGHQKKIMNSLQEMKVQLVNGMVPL
Excerpt: as §1

[21] = target: PAK2 (Homo sapiens, UniProt Q13177)
Excerpt: as §1

[22] = target: CAMK2D (Homo sapiens, UniProt Q13557)
Excerpt: as §1

[23] = target: EIF2AK1 (Homo sapiens, UniProt Q9BQI3)
Excerpt: as §1

[24] = target: BLK (Homo sapiens, UniProt P51451)
Excerpt: as §1

T1 sequence (Q96D53 whole entry): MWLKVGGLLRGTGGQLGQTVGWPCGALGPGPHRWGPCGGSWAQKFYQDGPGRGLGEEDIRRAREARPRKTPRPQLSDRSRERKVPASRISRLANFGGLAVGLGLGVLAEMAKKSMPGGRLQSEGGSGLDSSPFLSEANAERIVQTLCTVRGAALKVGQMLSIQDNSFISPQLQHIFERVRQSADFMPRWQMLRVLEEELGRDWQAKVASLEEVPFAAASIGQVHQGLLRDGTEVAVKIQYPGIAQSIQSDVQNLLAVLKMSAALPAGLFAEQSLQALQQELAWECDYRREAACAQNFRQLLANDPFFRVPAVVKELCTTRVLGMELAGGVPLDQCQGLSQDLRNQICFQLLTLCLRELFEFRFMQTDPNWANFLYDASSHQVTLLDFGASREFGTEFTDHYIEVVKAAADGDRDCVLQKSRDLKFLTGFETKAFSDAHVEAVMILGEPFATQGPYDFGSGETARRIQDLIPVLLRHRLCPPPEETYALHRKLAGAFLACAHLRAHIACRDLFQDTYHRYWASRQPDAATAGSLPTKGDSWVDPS

Cn1c(=O)[nH]c2ccc(-c3cccc(C(=O)NC4CCn5ccnc5C4)c3)cc21 (stereo not drawn) [Z36-MP5]
remaining binding at 1 µM [1]: 64%
remaining binding at 1 µM [2]: 63%
remaining binding at 1 µM [3]: 86%
remaining binding at 1 µM [4]: 55%
remaining binding at 1 µM [5]: 60%
remaining binding at 1 µM [6]: 52%
remaining binding at 1 µM [7]: 51%
remaining binding at 1 µM [8]: 90%
remaining binding at 1 µM [9]: 79%
remaining binding at 1 µM [10]: 89%
remaining binding at 1 µM [11]: 52%
remaining binding at 1 µM [12]: 88%
remaining binding at 1 µM [13]: 84%
remaining binding at 1 µM [14]: 72%
remaining binding at 1 µM [15]: 69%
remaining binding at 1 µM [16]: 100%
remaining binding at 1 µM [17]: 81%
remaining binding at 1 µM [18]: 38%
remaining binding at 1 µM [19]: 69%
remaining binding at 1 µM [20]: 86%
remaining binding at 1 µM [21]: 63%
remaining binding at 1 µM [22]: 89%
remaining binding at 1 µM [23]: 73%
remaining binding at 1 µM [24]: 100%
